Data taken from US9101566B2, “Fermentation product of cereal plant-derived material and immunomodulator” (KIRIN HOLDINGS KABUSHIKI KAISHA, priority 2009, dated 2015).

Tests used:
[1] = tested on: mDCs treated with 14-DHE co-cultured with naive CD4+ T cells; experiment: Antigen-non-specific Treg-inducing capacity (MLR) of DCs treated with 14-DHE (Example 10); assay type: cell-based, mouse
Protocol: In a manner similar to that in the above Examples, DCs were induced using Flt-3L from BALB/c mouse bone marrow cells in the presence of a processed product of wheat bran fermented with koji and then treated with LPS for 24 hours. mDCs were sorted from the thus obtained cells in a manner similar to that in Example 3 and then subjected to mitomycin C treatment to stop the DC proliferation.
Next, naive CD4^+ T cells were sorted from C57BL/6, DCs and the sorted cells were mixed at DC:CD4^+T=1:10 (the number of cells), and then they were co-cultured. At this time, the medium was supplemented with 0.5 ng/mL TGF-β1 (Peprotech).
Seven days layer, cells were recovered and then the proportion of FoxP3^+CD25^+ T cells in CD^+ T cells was determined using a flow cytometer (after staining of cell surface markers using anti-CD25-FITC, anti-CD3-APC-Cy7, and anti-CD4-PerCP, cell permeabilization treatment was performed using a Foxp3 Staining Buffer Set (e Bioscience) according to the manufacturer's instructions, and then intracellular Foxp3 was stained with anti-Foxp3-PE (e Bioscience)). […]
In a manner similar to that in Example 5, the Treg-inducing activity of mDCs treated with 14-DHE was measured. […]

[2] = tested on: C57BL/6 mDCs co-cultured with BALB/c CD8+ T cells; experiment: CD8+ Treg differentiation-inducing capacity of DCs treated with 14-DHE (Example 12); assay type: cell-based, mouse; conditions: mDC:CD8+ T 1:10; 0.5 ng/mL TGF-α 3; 5 days
Protocol: In a manner similar to Example 11, mDCs were sorted from DCs induced from C57BL/6 mouse bone marrow cells in the presence of 14-DHE and Flt-3L. Next, CD8^+ T cells were isolated from the BALB/c mouse spleen using the CD8α^+ T cell isolation kit (mouse) (Miltenyi Biotec). Cells were mixed at a ratio of mDC:CD8^+ T cell of 1:10 and then cultured in the medium containing 0.5 ng/mL […] for 5 days. Five days later, the cells were recovered and then the proportion of CD25^+FoxP3^+ cells in CD8^+ T cells was determined using a flow cytometer. Prior to flow cytometry, cell staining was performed using CD8α-PE-Cy7, CD25-APC-Cy7, and CD3e-PerCP, cell membrane permeabilization treatment was performed using the FoxP3 staining buffer set (eBioscience), and then FoxP3-PE staining was performed.

[3] = tested on: regional lymph node cells and spleen cells of EAE mice; experiment: EAE model, day 11 autopsy: inflammatory cytokines produced by lymph node and spleen cells (ELISA); assay type: in vivo, mouse
Protocol: (§1) On day 0, the 35-55 peptide (MOG35-55, Operon), a glycoprotein of myelin oligodendroglial cells, as an antigen was mixed with complete Freund's adjuvant (CFA, Difco) and then the mixture was subcutaneously administered at a dose of 200 μg/animal. Subsequently, pertussis toxin (Wako Pure Chemical Industries, Japan) was intraperitoneally administered at a dose of 200 ng/animal on day 1 and day 3, thereby inducing the onset of multiple sclerosis. During days 7 to 18, 14-DHE was intraperitoneally administered at a dose of 10 μg/animal once a day. To the vehicle group, the following solvent for 14-DHE was administered: 10% ethanol (Wako Pure Chemical Industries, Japan)/10% Cremophor (Wako Pure Chemical Industries, Japan)/80% PBS (Takara, Japan).
(§2) Mice were autopsied on day 11 (when inflammation was thought to take place in vivo) to obtain biochemical data.
(1) Spleen cells were prepared and then cultured for 7 days with or without re-stimulation with 2 μM MOG. Culture supernatants were recovered. The amounts of produced IFN-γ and TNF-α were measured by ELISA.

[4] = tested on: CD4+ T cells in regional lymph node cells and spleen cells of EAE mice; experiment: EAE model, day 11 autopsy: intracellular cytokine positive rate in CD4+ T cells; assay type: in vivo, mouse; conditions: re-stimulation with 2 μM MOG
Protocol: as §1, §2
(2) Spleen cells and regional lymph node (inguinal or axillary) cells were prepared and then cultured for 3 days with re-stimulation with 2 μM MOG. Golgi plug (1 μL/mL) (Becton, Dickinson and Company) was added and then further incubation was performed for 4.5 hours. Cells were recovered and then subjected to cell surface staining with CD4-PerCP and CD3-APC-Cy7. Next, cell membrane permeabilization treatment was performed using the Cytofix/CytoPerm kit (Becton, Dickinson and Company), intracellular cytokine staining was performed using antibodies to TNF-α-FITC, IL-17-PE, IL-10-APC, and IFN-γ-PE-Cy7, and then the positive rate of intracellular cytokines in CD4^+ T cells was measured using FACS.

[5] = tested on: human DCs from peripheral blood CD14-positive cells; experiment: Human regulatory DC-inducing activity of 14-DHE (Example 16); assay type: cell-based; conditions: 14-DHE 1, 3 or 10 μM; ergosterol 10 μM; LPS/IFN-γ or cytokine cocktail 24 h
Protocol: Mononuclear cells were prepared from human peripheral blood by density-gradient centrifugation using Ficoll-Paque (GE Healthcare, Japan). These cells were subjected to positive selection using anti-human CD14 MACS beads (Miltenyi Biotec), so that CD14-positive cells were obtained. CD14-positive cells were cultured in RPMI1640 media (containing 10% FBS (Invitrogen), 50 μmol/L 2-mercaptoethanol (Wako Pure Chemical Industries, Japan), 50 U/mL penicillin, and 50 μg/mL streptomycin (Gibco) (Sigma Aldrich)) supplemented with recombinant human GM-CSF (800 U/mL, Leukine, Berlex) and recombinant human IL-4 (100 ng/mL, Peprotech). During culture, medium exchange was performed once every 2 days. On day 7 of culture, 14-DHE was added at a concentration of 1 μM, 3 μM, or 10 μM. To a control, 10 μM ergosterol, which was a related substance, was added. Also, to a negative control, 1% ethanol, which was a solvent for 14-DHE, was added. The cells were recovered on day 8 of culture, counted, and then suspended at a density of 3×10^5 cells/mL in the above media. To cell suspensions, 1 μg/mL LPS and 100 ng/mL IFN-γ (both, Sigma Aldrich), or cytokine cocktail (1 μg/mL PGE2 (Sigma Aldrich), 10 ng/mL TNF-α, 2 μg/mL IL-6, and 10 ng/mL IL-1β (3 (all, BD Bioscience)) were added, followed by 24-hour culture. After culture, the cells were stained for CD86, HLA-DR, and CD80. Antibodies used were all produced by BD Bioscience. The gate of DCs was set by FSC and SSC, and the expression levels of these cell surface markers were analyzed.

[6] = re-stimulation with MOG antigen

**Q.** Which “generation of Treg compared with the control” value [1] does the source give for `CC(C)[C@@H](C)/C=C/[C@@H](C)[C@H]1CC=C2C3=CC=C4C[C@@H](O)CC[C@]4(C)[C@H]3CC[C@@]21C` [Sample 14-DHE, ergosta-5,7,14,22-tetraen-3β-ol] here?
**A.** about 2 times

**Q.** And the “induction of CD8+CD25+FoxP3+ cells compared with control mDCs” value [2]?
**A.** ≥ 3 times

**Q.** And the “IFN-γ production from regional lymph node cells” value ([3]; not re-stimulated with MOG antigen)?
**A.** significantly decrease

**Q.** What about the “TNF-α production from spleen cells” value ([3]; re-stimulated with MOG antigen) of the same compound?
**A.** decreased

**Q.** And the “IFN-γ production from regional lymph node cells” value [3, 6]?
**A.** decreasing trend

**Q.** And the “IFN-γ production from spleen cells” value [3, 6]?
**A.** decreasing trend

**Q.** And the “TNF-α production from regional lymph node cells” value ([3]; with or without re-stimulation with MOG antigen)?
**A.** significantly decreased

**Q.** What about the “IFN-γ production by CD4+ T cells, lymph node cells” value [4] of the same compound?
**A.** significantly decrease

**Q.** What about the “IFN-γ production by CD4+ T cells, spleen cells” value [4] of the same compound?
**A.** significantly decrease

**Q.** And the “IL-17 production by CD4+ T cells, spleen cells” value [4]?
**A.** significantly decrease

**Q.** What about the “TNF-α production by CD4+ T cells, lymph node cells” value [4] of the same compound?
**A.** significantly decrease

**Q.** What about the “TNF-α production by CD4+ T cells, spleen cells” value [4] of the same compound?
**A.** significantly decrease

**Q.** What about the “expression level of CD80 on human DCs” value [5] of the same compound?
**A.** decreased

**Q.** And the “expression level of CD86 on human DCs” value [5]?
**A.** decreased

**Q.** What about the “expression level of MHC class II molecule HLA-DR on human DCs” value [5] of the same compound?
**A.** decreased
